# Target: T1, Nav1.7 (or SCN9A) channel; HEK cells stably transfected with hSCN9A (Homo sapiens, UniProt Q15858)
# T1 construct: expressed in transfected cells
# Assay: Nav1.7 block, PatchXpress 7000 automated whole-cell voltage clamp, estimated IC50 (EIC50)
# Assay type: cell-based
# Details: estimated IC50; hSCN9A HEK cells, PatchXpress platform; Examples 283-814
# T1 sequence (Q15858 whole entry): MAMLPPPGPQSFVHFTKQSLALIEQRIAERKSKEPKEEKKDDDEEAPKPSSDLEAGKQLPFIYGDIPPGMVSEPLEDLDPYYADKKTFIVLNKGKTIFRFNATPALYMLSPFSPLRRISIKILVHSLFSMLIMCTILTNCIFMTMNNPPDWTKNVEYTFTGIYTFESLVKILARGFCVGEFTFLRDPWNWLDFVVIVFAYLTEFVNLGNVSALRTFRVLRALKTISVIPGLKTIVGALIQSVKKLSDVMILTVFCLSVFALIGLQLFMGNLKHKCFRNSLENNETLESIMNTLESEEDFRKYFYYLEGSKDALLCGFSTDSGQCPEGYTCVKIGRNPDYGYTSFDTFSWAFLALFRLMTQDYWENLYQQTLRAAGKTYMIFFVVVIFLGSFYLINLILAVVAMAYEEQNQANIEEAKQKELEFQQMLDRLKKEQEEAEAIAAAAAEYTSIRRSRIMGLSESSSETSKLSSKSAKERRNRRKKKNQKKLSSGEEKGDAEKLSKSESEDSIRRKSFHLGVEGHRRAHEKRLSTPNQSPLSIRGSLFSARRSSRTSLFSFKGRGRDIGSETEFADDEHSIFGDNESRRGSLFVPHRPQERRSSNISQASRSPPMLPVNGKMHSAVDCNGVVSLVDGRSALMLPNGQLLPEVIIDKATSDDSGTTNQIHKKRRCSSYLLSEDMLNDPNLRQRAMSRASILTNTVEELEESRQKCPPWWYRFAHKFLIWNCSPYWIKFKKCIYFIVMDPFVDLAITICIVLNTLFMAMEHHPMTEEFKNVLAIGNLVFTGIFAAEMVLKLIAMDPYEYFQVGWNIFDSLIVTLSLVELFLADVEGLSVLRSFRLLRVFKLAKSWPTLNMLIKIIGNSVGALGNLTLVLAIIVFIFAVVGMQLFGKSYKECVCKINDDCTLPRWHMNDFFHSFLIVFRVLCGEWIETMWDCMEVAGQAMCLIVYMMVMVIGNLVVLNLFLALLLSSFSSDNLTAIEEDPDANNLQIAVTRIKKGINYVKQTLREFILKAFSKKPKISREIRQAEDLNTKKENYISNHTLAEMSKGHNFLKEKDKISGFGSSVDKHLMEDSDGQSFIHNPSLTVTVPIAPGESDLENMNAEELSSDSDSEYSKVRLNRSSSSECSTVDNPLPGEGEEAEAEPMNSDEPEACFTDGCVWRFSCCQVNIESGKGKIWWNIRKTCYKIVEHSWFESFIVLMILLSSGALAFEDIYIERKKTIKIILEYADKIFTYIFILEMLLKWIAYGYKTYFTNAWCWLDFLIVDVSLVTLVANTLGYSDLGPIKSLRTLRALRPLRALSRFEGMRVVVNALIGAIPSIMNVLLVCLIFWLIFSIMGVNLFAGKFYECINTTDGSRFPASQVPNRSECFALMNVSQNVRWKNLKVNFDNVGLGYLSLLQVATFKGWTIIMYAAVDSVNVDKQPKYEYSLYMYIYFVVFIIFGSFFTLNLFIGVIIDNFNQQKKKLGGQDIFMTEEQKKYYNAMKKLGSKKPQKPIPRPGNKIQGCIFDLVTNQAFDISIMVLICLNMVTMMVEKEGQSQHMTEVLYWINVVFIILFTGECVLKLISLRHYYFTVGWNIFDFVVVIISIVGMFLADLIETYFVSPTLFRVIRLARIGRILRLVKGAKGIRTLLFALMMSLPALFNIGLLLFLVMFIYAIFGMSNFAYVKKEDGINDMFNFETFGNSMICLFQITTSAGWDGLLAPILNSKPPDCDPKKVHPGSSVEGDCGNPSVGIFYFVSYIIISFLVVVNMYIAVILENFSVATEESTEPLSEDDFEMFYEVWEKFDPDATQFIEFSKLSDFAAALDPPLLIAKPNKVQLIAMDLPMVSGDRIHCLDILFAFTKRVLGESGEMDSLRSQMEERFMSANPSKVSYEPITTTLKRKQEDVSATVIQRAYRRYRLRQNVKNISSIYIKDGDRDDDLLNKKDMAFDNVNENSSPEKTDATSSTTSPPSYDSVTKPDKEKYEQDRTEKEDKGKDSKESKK
row,Compound,IC50 [µM]
1,"N#Cc1cc(S(=O)(=O)Nc2cscn2)ccc1Oc1ccc(Cl)cc1-n1cnc(C(F)(F)F)c1 [Example 397, 4-{4-chloro-2-[4-(trifluoromethyl)-1H-imidazol-1-yl]phenoxy}-3-cyano-N-1,3-thiazol-4-ylbenzenesulfonamide]",>1
2,"N#Cc1cc(S(=O)(=O)Nc2cscn2)ccc1Oc1ccc(Cl)cc1-c1ccn(C(F)(F)F)n1 [Example 398, 4-{4-chloro-2-[1-(trifluoromethyl)-1H-pyrazol-3-yl]phenoxy}-3-cyano-N-1,3-thiazol-4-ylbenzenesulfonamide]",>1
3,"N#Cc1cc(S(=O)(=O)Nc2cscn2)ccc1Oc1ccc(Cl)cc1-c1ccnn1C(F)(F)F [Example 399, 4-{4-chloro-2-[1-(trifluoromethyl)-1H-pyrazol-5-yl]phenoxy}-3-cyano-N-1,3-thiazol-4-ylbenzenesulfonamide]",1.2
4,"Cn1nccc1-c1ccccc1Oc1ccc(S(=O)(=O)Nc2cscn2)cc1C#N [Example 400, 3-cyano-4-[2-(1-methyl-1H-pyrazol-5-yl)phenoxy]-N-1,3-thiazol-4-ylbenzenesulfonamide]",1.2
5,"CCn1nc(C(F)(F)F)cc1-c1ccc(Oc2ccc(S(=O)(=O)Nc3cscn3)cc2C#N)cc1 [Example 401, 3-cyano-4-{4-[1-ethyl-3-(trifluoromethyl)-1H-pyrazol-5-yl]phenoxy}-N-1,3-thiazol-4-ylbenzenesulfonamide]",2.7
6,"N#Cc1cc(S(=O)(=O)Nc2cscn2)ccc1Oc1ccc(Cl)cc1-c1ccnn1C(F)F [Example 402, 4-{4-chloro-2-[1-(difluoromethyl)-1H-pyrazol-5-yl]phenoxy}-3-cyano-N-1,3-thiazol-4-ylbenzenesulfonamide]",0.25
7,"Nc1cccc(-c2cc(Cl)ccc2Oc2cc(F)c(S(=O)(=O)Nc3ncns3)cc2Cl)n1 [Example 403, 4-[2-(6-aminopyridin-2-yl)-4-chlorophenoxy]-5-chloro-2-fluoro-N-1,2,4-thiadiazol-5-ylbenzenesulfonamide]",0.0045
8,"CCn1nc(C(F)(F)F)cc1-c1ccc(Oc2cc(F)c(S(=O)(=O)Nc3ccc(F)cn3)cc2Cl)cc1 [Example 404, 5-chloro-4-{4-[1-ethyl-3-(trifluoromethyl)-1H-pyrazol-5-yl]phenoxy}-2-fluoro-N-(5-fluoropyridin-2-yl)benzenesulfonamide]",1.2
9,"Nc1cc(-c2cc(F)ccc2Oc2cc(F)c(S(=O)(=O)Nc3ncns3)cc2Cl)ccn1 [Example 405, 4-[2-(2-aminopyridin-4-yl)-4-fluorophenoxy]-5-chloro-2-fluoro-N-1,2,4-thiadiazol-5-ylbenzenesulfonamide]",0.0027
10,"Cn1ncnc1-c1cc(Cl)ccc1Oc1ccc(S(=O)(=O)Nc2nccs2)cc1F [Example 406, 4-[4-chloro-2-(1-methyl-1H-1,2,4-triazol-5-yl)phenoxy]-3-fluoro-N-1,3-thiazol-2-ylbenzenesulfonamide]",3
11,"Nc1cccc(-c2cc(F)ccc2Oc2cc(F)c(S(=O)(=O)Nc3ncns3)cc2F)n1 [Example 407, 4-[2-(6-aminopyridin-2-yl)-4-fluorophenoxy]-2,5-difluoro-N-1,2,4-thiadiazol-5-ylbenzenesulfonamide]",0.19
12,"CCn1nc(C(F)(F)F)cc1-c1ccc(Oc2ccc(S(=O)(=O)Nc3nccs3)cc2F)cc1 [Example 408, 4-{4-[1-ethyl-3-(trifluoromethyl)-1H-pyrazol-5-yl]phenoxy}-3-fluoro-N-1,3-thiazol-2-ylbenzenesulfonamide]",0.3
13,"Nc1cccc(-c2cc(Cl)ccc2Oc2cc(F)c(S(=O)(=O)Nc3ncns3)cc2F)n1 [Example 409, 4-[2-(6-aminopyridin-2-yl)-4-chlorophenoxy]-2,5-difluoro-N-1,2,4-thiadiazol-5-ylbenzenesulfonamide]",0.019
14,"Nc1ccc(-c2cc(Cl)ccc2Oc2cc(F)c(S(=O)(=O)Nc3ncns3)cc2F)cn1 [Example 410, 4-[2-(6-aminopyridin-3-yl)-4-chlorophenoxy]-2,5-difluoro-N-1,2,4-thiadiazol-5-ylbenzenesulfonamide]",0.029

# Source: patent publication US8541588B2, “Sulfonamide derivatives” (Pfizer Limited, priority 2009, dated 2013)
